# Source: patent US8822377B2, “Herbicidal compositions comprising topramezone and pinoxaden” (BASF SE, priority 2011, dated 2014)
# Columns and labels:
# VERPE (field speedwell) = assay: Greenhouse post-emergence herbicidal activity against field speedwell; type: in vivo; conditions: Veronica persica, 648 h, topramezone 12 g a.i./ha, read-out: Herbicidal activity (%) at 27 DAT Observed VERPE GS22
# Text: (§1) The test period extended over 1 to 4 weeks.
# (§2) 22 ff. E=X+Y−(X·Y/100) where • X=effect in percent using herbicide A at an application rate a; • Y=effect in percent using pinoxaden (herbicide B) at application rate b or a combination of pinoxaden and safener C at application rates b and c; • E=expected effect (in %) of A+B at application rates a+b or of A+B+C at application rates a+b+c.
# (§3) The value E corresponds to the effect (plant damage or injury) which is to be expected if the activity of the individual compounds is just additive. If the observed effect is higher than the value E calculated according to Colby, a synergistic effect is present.
# GALAP (cleaver) = assay: Greenhouse post-emergence herbicidal activity against cleaver; type: in vivo; conditions: Galium aparine, 648 h, topramezone 12 g a.i./ha, read-out: Herbicidal activity (%) at 27 DAT Observed GALAP GS22
# Text: as §1, §2, §3
# [1] = system: TRZAW (winter wheat) Cubus; assay: Greenhouse post-emergence crop damage rating, winter wheat; conditions: topramezone 12 g a.i./ha, 0=no damage, 100=complete destruction
# Description: (§4) The culture containers used were plastic pots containing loamy sand with approximately 3.0% of humus as substrate. The seeds of the test plants were sown separately for each species.
# (§5) In all use examples, plants were grown in a greenhouse environment.
# (§6) To this end, the test plants were either sown directly and grown in the same containers, or they were first grown separately as seedlings and transplanted into the test containers a few days prior to treatment.
# (§7) Depending on the species, the plants were kept at 10-25° C. and 20-35° C., respectively. The test period extended over 1 to 4 weeks. During this time, the plants were tended and their response to the individual treatments was evaluated.
# (§8) Topramezone was used as a commercial suspension concentrate (Clio® of BASF SE) having an active ingredient concentration of 336 g/l.
# (§9) The evaluation for the damage caused by the chemical compositions was carried out using a scale from 0 to 100%, compared to the untreated control plants. Here, 0 means no damage and 100 means complete destruction of the plants.
# TRZAS Taifun = assay: Greenhouse post-emergence crop damage rating, wheat TRZAS; conditions: topramezone 12 g a.i./ha
# Description: as §4, §5, §6, §7, §8, §9
# [2] = system: HORVW (winter barley) Highlight; assay: Greenhouse post-emergence crop damage rating, winter barley; conditions: topramezone 12 g a.i./ha
# Description: as §4, §5, §6, §7, §8, §9
compound,measurement,setting,value
"Cc1c(C(=O)c2cnn(C)c2O)ccc(S(C)(=O)=O)c1C1=NOCC1 [Topramezone, [3-(4,5-dihydro-1,2-oxazol-3-yl)-4-mesyl-o-tolyl](5-hydroxy-1-methylpyrazol-4-yl)methanone]",inhibition at 12 g/ha,VERPE (field speedwell),75%
same,inhibition at 12 g/ha,GALAP (cleaver),90%
same,Herbicidal activity (%) at 27 DAT TRZAW Cubus GS12,[1],20%
same,Herbicidal activity (%) at 27 DAT TRZAS Taifun GS11,TRZAS Taifun,30%
same,Herbicidal activity (%) at 27 DAT HORVW Highlight GS11,[2],20%
